Measurements reported in patent US20200360341A1, “INDOMETHACIN MENTHYL ESTER-BASED PHARMACEUTICAL COMPOSITIONS AND THEIR USE AS ANTI-INFLAMMATORY AGENTS” (OBSHESTVO S OGRANICHENNOI OTVETSTVENNOSTJU "FORBOS”, priority 2017, published 2020).

Legend:
[1] = Pharmacokinetics: indomethacin in blood plasma after oral administration; assay type: in vivo, rats (Sprague Dawley); details: 25 mg/kg
Method: Pharmacokinetic properties of two MEI-based compositions were studied: composition 1 (liposome-encapsulated MEI), produced as described in example 1, and composition 3 (MEI solution), produced as described in example 3. MEI substance (as a suspension in starch solution) and indomethacin were used as reference drugs. Rats of Sprague Dawley stock were used. All test compounds were administered orally to rats in 25 mg/kg dose. Animal blood was sampled at certain time points (0; 0.25; 0.5; 1, 2, 4, 8, 16 and 24 hours) for analysis. Indomethacin content in animal blood plasma was determined using high-performance liquid chromatography (HPLC) method.

serotonin-induced edema = assay: Serotonin-induced paw edema (acute inflammation); assay type: in vivo, rats (Sprague Dawley); details: oral; for Inflammation inhibition index: 2 h before serotonin, 30 min after serotonin, n = 8
Method: Anti-inflammatory activity of MEI-based pharmaceutical compositions compared to MEI substance (as a suspension in starch solution) and indomethacin after oral administration was studied in a model of acute inflammation-paw edema induced by inflammation mediator serotonin. Rats of Sprague Dawley stock were used. […] Test compounds were administered orally 2 hours before the serotonin administration. […] Inflammation severity was measured by plethyosmography as the difference between the masses of control and test paws, expressed in ml. Anti-inflammatory activity of the test compounds was assessed by the inhibition index, calculated using the following formula: II=(([…])×100%, where II-inflammation inhibition index in %; Set-severity of inflammation in the control group, ml; St-severity of inflammation in the test group, ml.

[2] = test system: adjuvant-induced rheumatoid arthritis; assay: Adjuvant-induced rheumatoid arthritis, inflammation severity by plethysmography; assay type: in vivo
Method: (§1) Anti-inflammatory and analgesic activity of MEI-based pharmaceutical composition after oral administration was studied in a model of chronic inflammation—adjuvant-induced rheumatoid arthritis in rats. To induce arthritis the rats were administered 100 mcl of complete Freund adjuvant (CFA), supplied by Sigma Aldrich, into the plantar surface of right hind paw. The control (intact) group 1 has received 100 mcl of saline. After CFA injection, local inflammation develops in a few hours, with subsequent pathologic changes in metacarpophalangeal joints and distal interphalangeal joints. Test compound (composition 3—MEI solution) and the reference drug (indomethacin) were administered once daily orally for 22 days, starting from 7th day after pathology induction. Test compound was administered in 6.25, 12.5 and 25 mg/kg doses. […] To assess the anti-inflammatory action of MEI in animals by pelthysmography, inflammation severity was measured as the difference between the masses of control and test paws, expressed in ml. Analgesic activity of MEI in animals was assessed by tactile reactivity threshold using the method of Chaplan et al. using the kit of 8 standard von Frey hairs (Stoelting, USA).

[3] = test system: adjuvant-induced rheumatoid arthritis; assay: Adjuvant-induced rheumatoid arthritis, tactile reactivity threshold (von Frey hairs); assay type: in vivo, rats
Method: as §1

yeast-induced fever = assay: Yeast-induced fever (antipyretic activity); assay type: in vivo, rats (Sprague Dawley); details: n = 6
Method: Antipyretic activity of MEI-based pharmaceutical composition was studied in a model of yeast-induced fever in rats. Rats of Sprague Dawley stock were used. Fever was induced in rats by subcutaneous administration of baker's yeast suspension in 2000 mg/kg dose (calculated for dry yeast basis) in 2 ml volume into the animal withers 18 hours before test compound administration. Animal body temperature was measured using an electronic rectal thermometer (MLT1403 Rectal Temperature Probe and PowerLab 4/35 4-channel registration system module, ADlnstruments PtyLtd, Australia). Temperature was measured before yeast administration and 18 h after yeast administration. Afterwards the animals were administered the test compound, MEI-based pharmaceutical composition (composition 3—MEI solution, produced as described in Example 3) in 25, 50 and 100 mg/kg doses. Indomethacin in 10 mg/kg dose was used as a reference drug. Animals in control group have received the vehicle. Temperature was measured 2 and 4 hours after test compound administration.

gastric mucosa = assay: Ulcerogenic action on gastric mucosa after fourfold oral administration; assay type: in vivo, rats; details: for Average score (ulcerogenic action) / Average number of erosions / Average number of ulcers: 4 times orally; for Average score (ulcerogenic action): scale 0 (no damage) to 4 (gross damage); for Average number of erosions / Average number of ulcers: stomach 3 h after last administration
Method: Ulcerogenic action was measured using the following 4-point scale: 0—no damage; 0.5—slight hyperemia of gastric mucosa; 1—weak localized damage of gastric mucosa (single point bleeding, severe hyperemia); 2—weak distributed damage of gastric mucosa (small ulcers, erosions, multiple bleeding); 3—severe and distributed damage of gastric mucosa (erosions, ulcers, bleeding); 4—gross damage of the whole stomach (massive bleeding, erosion, ulcers, perforation).

[4] = rats, oral administration; cited from earlier work
[5] = test system: carrageenan-induced edema; assay: Carrageenan-induced edema, intraperitoneal administration; assay type: in vivo, rats (Sprague Dawley); details: after 4 h
Method: Anti-inflammatory activity of MEI-based pharmaceutical composition after parenteral administration was studied in a model of carrageenan-induced edema. Rats of Sprague Dawley stock were used. 50 mcl of saline (“sodium chloride 0.9% solution for infusion”, NPK ESCOM, Russia) was injected intraplantarly into one hind paw (control paw), while 50 mcl of 1% λ-carrageenan solution was injected into another paw.
Inflammation severity was measured after 4 h using a plethysmometer (IITC Life Science, USA). Inflammation severity was measured by plethyosmography as the difference between the masses of control and test paws, expressed in ml. Test compound, pharmaceutical composition […] (MEI solution) was administered parenterally (intraperitoneally) 1 hour before λ-carrageenan administration, animals receiving the same amount of the vehicle were used as control. The animals were deprived of food 24 h before the study, water access was not limited.

[6] = 1 mg/kg oral once daily from day 7, day 21
[7] = 1 mg/kg oral once daily from day 7, day 28
[8] = 1 mg/kg oral once daily, day 7 (before test compound administration)
[9] = composition 3 (MEI solution) 6.25 mg/kg oral once daily from day 7, day 21
[10] = composition 3 (MEI solution) 6.25 mg/kg oral once daily from day 7, day 28
[11] = composition 3 (MEI solution) 6.25 mg/kg oral once daily, day 7 (before test compound administration)
[12] = composition 3 (MEI solution) 12.5 mg/kg oral once daily from day 7, day 21
[13] = composition 3 (MEI solution) 12.5 mg/kg oral once daily from day 7, day 28
[14] = composition 3 (MEI solution) 12.5 mg/kg oral once daily, day 7 (before test compound administration)
[15] = composition 3 (MEI solution) 25 mg/kg oral once daily from day 7, day 21
[16] = composition 3 (MEI solution) 25 mg/kg oral once daily from day 7, day 28
[17] = composition 3 (MEI solution) 25 mg/kg oral once daily, day 7 (before test compound administration)
[18] = composition 3 (MEI solution) 25 mg/kg oral
[19] = composition 3 (MEI solution) 50 mg/kg oral
[20] = composition 3 (MEI solution) 100 mg/kg oral
[21] = MEI-based composition 100 mg/kg

COc1ccc2c(c1)c(CC(=O)O)c(C)n2C(=O)c1ccc(Cl)cc1 [Indomethacin, 1-(4-chlorobenzoyl)-5-methoxy-2-methyl-1H-indole-3-acetic acid]
Tmax ([1]; Sprague-Dawley, rat blood plasma, read-out: time of reaching the maximal concentration (Tmax) of indomethacin): 4 h
Cmax ([1]; Sprague-Dawley, rat, plasma, indomethacin measured by HPLC, read-out: maximal concentration of indomethacin in rat blood plasma (Cmax)): 65.5 µg/mL
Inflammation inhibition index (serotonin-induced edema; 10 mg/kg): 43.5%
inflammation severity ([2]; 1 mg/kg oral once daily from day 7, day 14): 1.8 ± 0.24 mL
inflammation severity [2, 6]: 1.5 ± 0.18 mL
inflammation severity [2, 7]: 1.4 ± 0.28 mL
inflammation severity [2, 8]: 3.0 ± 0.59 mL
animal mortality ([2]; 5 mg/kg, oral once daily, arthritis model): animal mortality is observed
median-effective tactile reactivity threshold in an injected limb [3, 6]: 14.5 ± 3.18 g
median-effective tactile reactivity threshold in an injected limb [3, 7]: 16.0 ± 3.04 g
median-effective tactile reactivity threshold in an injected limb [3, 8]: 9.9 ± 2.34 g
Average body temperature 2 h after test compound administration (yeast-induced fever; 10 mg/kg): −0.98 °C
Average body temperature 4 h after test compound administration (yeast-induced fever; 10 mg/kg): −0.85 °C
Average score (ulcerogenic action) (gastric mucosa; 5 mg/kg): 3
Average number of erosions (gastric mucosa; 5 mg/kg): 3.2
Average number of ulcers (gastric mucosa; 5 mg/kg): 8
gastric mucosa findings (gastric mucosa; four 5 mg/kg doses, oral): multiple ulcers and erosions
LD50 [4]: less than 15 mg/kg

COc1ccc2c(c1)c(CC(=O)OC1CC(C)CCC1C(C)C)c(C)n2C(=O)c1ccc(Cl)cc1 (stereo not shown) [MEI]
indomethacin concentration in blood plasma ([1]; suspension in starch solution, any time point 0-24 h): below the detection limit
anti-inflammatory effect in model of acute inflammation (serotonin-induced edema; 25 mg/kg): doesn't have significant anti-inflammatory effects
Inflammation inhibition index (serotonin-induced edema; 25 mg/kg active agent): 4.3%
inflammation severity ([2]; composition 3 (MEI solution) 6.25 mg/kg oral once daily from day 7, day 14): 2.5 ± 0.76 mL
inflammation severity [2, 9]: 1.8 ± 0.49 mL
inflammation severity [2, 10]: 1.9 ± 0.51 mL
inflammation severity [2, 11]: 2.8 ± 0.54 mL
inflammation severity ([2]; composition 3 (MEI solution) 12.5 mg/kg oral once daily from day 7, day 14): 1.9 ± 0.37 mL
inflammation severity [2, 12]: 2.0 ± 0.40 mL
inflammation severity [2, 13]: 1.1 ± 0.21 mL
inflammation severity [2, 14]: 2.6 ± 0.38 mL
inflammation severity ([2]; composition 3 (MEI solution) 25 mg/kg oral once daily from day 7, day 14): 1.5 ± 0.22 mL
inflammation severity [2, 15]: 0.9 ± 0.07 mL
inflammation severity [2, 16]: 0.8 ± 0.12 mL
inflammation severity [2, 17]: 2.4 ± 0.43 mL
median-effective tactile reactivity threshold in an injected limb [3, 9]: 10.4 ± 3.09 g
median-effective tactile reactivity threshold in an injected limb [3, 10]: 9.6 ± 2.67 g
median-effective tactile reactivity threshold in an injected limb [3, 11]: 11.7 ± 2.93 g
median-effective tactile reactivity threshold in an injected limb [3, 12]: 13.3 ± 2.55 g
median-effective tactile reactivity threshold in an injected limb [3, 13]: 14.8 ± 2.35 g
median-effective tactile reactivity threshold in an injected limb [3, 14]: 11.8 ± 3.12 g
median-effective tactile reactivity threshold in an injected limb [3, 15]: 16.6 ± 2.64 g
median-effective tactile reactivity threshold in an injected limb [3, 16]: 18.2 ± 2.57 g
median-effective tactile reactivity threshold in an injected limb [3, 17]: 9.8 ± 2.14 g
Edema size ([5]; composition No 4 (MEI solution) 0.1 mg/kg intraperitoneally 1 h before carrageenan): 1.011 ± 0.115 mL
Edema size, % from control ([5]; composition No 4 (MEI solution) 0.1 mg/kg intraperitoneally): 91.2 % from control
Edema size ([5]; composition No 4 (MEI solution) 0.5 mg/kg intraperitoneally 1 h before carrageenan): 0.675 ± 0.065 mL
Edema size, % from control ([5]; composition No 4 (MEI solution) 0.5 mg/kg intraperitoneally): 60.9 % from control
Edema size ([5]; composition No 4 (MEI solution) 1.0 mg/kg intraperitoneally 1 h before carrageenan): 0.552 ± 0.097 mL
Edema size, % from control ([5]; composition No 4 (MEI solution) 1.0 mg/kg intraperitoneally): 45.0 % from control
Edema size ([5]; composition No 4 (MEI solution) 10 mg/kg intraperitoneally 1 h before carrageenan): 0.201 ± 0.176 mL
Edema size, % from control ([5]; composition No 4 (MEI solution) 10 mg/kg intraperitoneally): 18.1 % from control
Edema size ([5]; composition No 4 (MEI solution) 50 mg/kg intraperitoneally 1 h before carrageenan): 0.288 ± 0.152 mL
Edema size, % from control ([5]; composition No 4 (MEI solution) 50 mg/kg intraperitoneally): 26.0 % from control
Average body temperature 2 h after test compound administration (yeast-induced fever; [18]): −0.53 °C
Average body temperature 4 h after test compound administration (yeast-induced fever; [18]): −0.45 °C
Average body temperature 2 h after test compound administration (yeast-induced fever; [19]): −0.93 °C
Average body temperature 4 h after test compound administration (yeast-induced fever; [19]): −0.82 °C
Average body temperature 2 h after test compound administration (yeast-induced fever; [20]): −0.78 °C
Average body temperature 4 h after test compound administration (yeast-induced fever; [20]): −0.68 °C
Average score (ulcerogenic action) (gastric mucosa; MEI-based composition 25 mg/kg): 0
Average number of erosions (gastric mucosa; MEI-based composition 25 mg/kg): 0
Average number of ulcers (gastric mucosa; MEI-based composition 25 mg/kg): 0
Average score (ulcerogenic action) (gastric mucosa; MEI-based composition 50 mg/kg): 0
Average number of erosions (gastric mucosa; MEI-based composition 50 mg/kg): 0
Average number of ulcers (gastric mucosa; MEI-based composition 50 mg/kg): 0
Average score (ulcerogenic action) (gastric mucosa; [21]): 0.4
Average number of erosions (gastric mucosa; [21]): 0
Average number of ulcers (gastric mucosa; [21]): 0.8
